# Values of other authors in PMC9851200, “Multiparameter phenotypic screening for endogenous TFEB and TFE3 translocation identifies novel chemical series modulating lysosome function” (Autophagy, 2022).
# Legend:
# Parameters in all cases: method as in original PKIS2 published data
# [1] = target: T1, kinases (KINOMEscan panel) (Homo sapiens, UniProt O14965); settings: Published KINOMEscan; ref original PKIS2 published data; cited from earlier work
# T1 sequence (O14965 1-403): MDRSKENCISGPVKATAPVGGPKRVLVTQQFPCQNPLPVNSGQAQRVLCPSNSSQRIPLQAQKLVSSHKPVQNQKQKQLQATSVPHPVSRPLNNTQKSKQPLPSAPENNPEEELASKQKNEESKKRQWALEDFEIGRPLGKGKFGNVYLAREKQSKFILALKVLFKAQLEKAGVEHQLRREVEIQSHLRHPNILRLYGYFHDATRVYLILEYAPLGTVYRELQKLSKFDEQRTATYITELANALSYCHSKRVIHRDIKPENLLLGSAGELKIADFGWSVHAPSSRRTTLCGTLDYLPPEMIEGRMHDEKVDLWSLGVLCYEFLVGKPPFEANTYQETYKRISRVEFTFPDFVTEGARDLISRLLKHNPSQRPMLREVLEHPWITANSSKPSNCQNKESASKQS
# [2] = target: kinases (KINOMEscan panel) (Homo sapiens, UniProt P04049); settings: RAF1; Published KINOMEscan; ref original PKIS2 published data; cited from earlier work
# [3] = target: kinases (KINOMEscan panel) (Homo sapiens, UniProt P0C1S8); settings: WEE2; Published KINOMEscan; ref original PKIS2 published data; cited from earlier work
# [4] = target: T2, kinases (KINOMEscan panel) (Homo sapiens, UniProt Q16832); settings: DDR2; Published KINOMEscan; ref original PKIS2 published data; cited from earlier work
# T2 sequence (Q16832 22-855): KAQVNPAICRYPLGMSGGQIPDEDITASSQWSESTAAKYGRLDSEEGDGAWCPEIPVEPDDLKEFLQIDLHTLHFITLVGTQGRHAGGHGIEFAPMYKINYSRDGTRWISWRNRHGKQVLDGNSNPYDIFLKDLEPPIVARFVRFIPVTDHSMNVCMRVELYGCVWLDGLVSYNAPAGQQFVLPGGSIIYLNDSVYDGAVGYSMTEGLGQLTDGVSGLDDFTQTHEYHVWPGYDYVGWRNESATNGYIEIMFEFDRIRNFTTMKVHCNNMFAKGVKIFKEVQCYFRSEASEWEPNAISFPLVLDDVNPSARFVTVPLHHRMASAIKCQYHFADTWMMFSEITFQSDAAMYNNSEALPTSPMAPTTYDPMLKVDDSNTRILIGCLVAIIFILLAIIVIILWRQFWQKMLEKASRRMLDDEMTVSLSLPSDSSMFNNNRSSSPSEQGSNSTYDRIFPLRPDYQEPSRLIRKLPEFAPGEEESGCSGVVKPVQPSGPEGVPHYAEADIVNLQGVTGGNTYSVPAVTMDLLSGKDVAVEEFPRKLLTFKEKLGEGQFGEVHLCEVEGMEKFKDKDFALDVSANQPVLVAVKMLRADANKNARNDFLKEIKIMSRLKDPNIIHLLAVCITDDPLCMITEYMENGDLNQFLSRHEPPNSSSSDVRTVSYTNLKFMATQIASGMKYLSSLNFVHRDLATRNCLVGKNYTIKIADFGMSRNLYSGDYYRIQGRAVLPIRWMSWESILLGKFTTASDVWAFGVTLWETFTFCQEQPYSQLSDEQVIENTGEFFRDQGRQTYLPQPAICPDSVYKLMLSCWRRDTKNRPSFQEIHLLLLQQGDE
# [5] = target: T3, kinases (KINOMEscan panel) (Homo sapiens, UniProt Q8IYT8); settings: Published KINOMEscan; ref original PKIS2 published data; cited from earlier work
# T3 sequence (Q8IYT8 1-1036): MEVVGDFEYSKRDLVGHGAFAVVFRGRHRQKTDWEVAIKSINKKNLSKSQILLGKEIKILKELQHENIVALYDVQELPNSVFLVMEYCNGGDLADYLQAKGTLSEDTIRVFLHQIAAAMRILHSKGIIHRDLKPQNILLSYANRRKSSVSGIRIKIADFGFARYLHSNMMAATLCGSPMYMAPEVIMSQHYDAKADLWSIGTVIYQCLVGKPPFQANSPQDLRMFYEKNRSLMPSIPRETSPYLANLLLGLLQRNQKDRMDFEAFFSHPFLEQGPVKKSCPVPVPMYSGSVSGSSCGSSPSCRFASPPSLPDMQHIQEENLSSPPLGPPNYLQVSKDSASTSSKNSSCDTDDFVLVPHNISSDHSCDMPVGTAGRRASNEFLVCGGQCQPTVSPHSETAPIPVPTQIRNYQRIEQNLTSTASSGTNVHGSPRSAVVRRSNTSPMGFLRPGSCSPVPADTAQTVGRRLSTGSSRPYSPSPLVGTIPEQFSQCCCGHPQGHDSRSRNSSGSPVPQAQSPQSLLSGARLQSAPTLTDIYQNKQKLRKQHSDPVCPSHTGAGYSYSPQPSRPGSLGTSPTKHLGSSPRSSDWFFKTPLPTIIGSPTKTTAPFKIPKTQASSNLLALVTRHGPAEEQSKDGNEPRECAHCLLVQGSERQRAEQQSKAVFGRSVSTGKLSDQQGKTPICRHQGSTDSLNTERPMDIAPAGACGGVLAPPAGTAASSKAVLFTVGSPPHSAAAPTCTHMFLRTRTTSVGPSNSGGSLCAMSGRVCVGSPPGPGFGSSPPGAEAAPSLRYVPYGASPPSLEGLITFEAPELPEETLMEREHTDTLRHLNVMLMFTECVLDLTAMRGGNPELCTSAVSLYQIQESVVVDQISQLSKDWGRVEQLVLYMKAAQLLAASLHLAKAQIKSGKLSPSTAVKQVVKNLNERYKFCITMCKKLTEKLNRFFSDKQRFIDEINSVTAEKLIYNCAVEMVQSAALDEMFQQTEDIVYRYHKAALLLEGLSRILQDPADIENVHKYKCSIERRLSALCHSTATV
# [6] = target: kinases (KINOMEscan panel) (Homo sapiens, UniProt Q96J92); settings: WNK4; Published KINOMEscan; ref original PKIS2 published data; cited from earlier work
# [7] = target: kinases (KINOMEscan panel) (Homo sapiens, UniProt Q9H3Y6); settings: Published KINOMEscan; ref original PKIS2 published data; cited from earlier work
# [8] = target: kinases (KINOMEscan panel) (Homo sapiens, UniProt Q9HBH9); settings: MKNK2; Published KINOMEscan; ref original PKIS2 published data; cited from earlier work
# kinases (KINOMEscan panel) (Homo sapiens, UniProt Q9HBH9), sequence (Q9HBH9 whole entry): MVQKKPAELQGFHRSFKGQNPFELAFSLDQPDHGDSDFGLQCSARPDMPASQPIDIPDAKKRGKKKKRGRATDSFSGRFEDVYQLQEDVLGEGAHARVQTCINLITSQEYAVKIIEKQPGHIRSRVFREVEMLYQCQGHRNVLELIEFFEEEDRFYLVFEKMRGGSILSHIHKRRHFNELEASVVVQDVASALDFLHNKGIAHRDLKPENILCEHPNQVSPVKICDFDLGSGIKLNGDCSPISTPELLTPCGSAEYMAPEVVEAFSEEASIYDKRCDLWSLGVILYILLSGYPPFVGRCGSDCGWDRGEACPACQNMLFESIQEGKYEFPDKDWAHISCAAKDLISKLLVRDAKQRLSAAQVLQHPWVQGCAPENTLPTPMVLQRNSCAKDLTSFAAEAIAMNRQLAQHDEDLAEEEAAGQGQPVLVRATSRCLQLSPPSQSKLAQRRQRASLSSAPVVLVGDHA
# kinases (KINOMEscan panel) (Homo sapiens, UniProt P0C1S8), sequence (P0C1S8 whole entry): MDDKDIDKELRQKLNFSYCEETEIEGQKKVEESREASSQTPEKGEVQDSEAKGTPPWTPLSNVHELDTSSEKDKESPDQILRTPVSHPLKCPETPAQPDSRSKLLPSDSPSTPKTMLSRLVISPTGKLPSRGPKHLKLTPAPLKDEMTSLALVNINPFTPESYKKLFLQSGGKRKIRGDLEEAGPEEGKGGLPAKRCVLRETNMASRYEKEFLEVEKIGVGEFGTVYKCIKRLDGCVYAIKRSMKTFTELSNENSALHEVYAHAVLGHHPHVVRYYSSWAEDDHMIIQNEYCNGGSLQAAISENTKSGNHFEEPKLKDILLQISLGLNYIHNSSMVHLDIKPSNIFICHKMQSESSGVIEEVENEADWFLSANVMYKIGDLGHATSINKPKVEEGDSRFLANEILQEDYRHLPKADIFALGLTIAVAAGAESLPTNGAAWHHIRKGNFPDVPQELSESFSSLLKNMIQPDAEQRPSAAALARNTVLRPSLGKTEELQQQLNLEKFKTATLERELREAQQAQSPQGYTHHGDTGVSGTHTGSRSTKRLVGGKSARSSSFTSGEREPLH
# kinases (KINOMEscan panel) (Homo sapiens, UniProt Q96J92), sequence (Q96J92 whole entry): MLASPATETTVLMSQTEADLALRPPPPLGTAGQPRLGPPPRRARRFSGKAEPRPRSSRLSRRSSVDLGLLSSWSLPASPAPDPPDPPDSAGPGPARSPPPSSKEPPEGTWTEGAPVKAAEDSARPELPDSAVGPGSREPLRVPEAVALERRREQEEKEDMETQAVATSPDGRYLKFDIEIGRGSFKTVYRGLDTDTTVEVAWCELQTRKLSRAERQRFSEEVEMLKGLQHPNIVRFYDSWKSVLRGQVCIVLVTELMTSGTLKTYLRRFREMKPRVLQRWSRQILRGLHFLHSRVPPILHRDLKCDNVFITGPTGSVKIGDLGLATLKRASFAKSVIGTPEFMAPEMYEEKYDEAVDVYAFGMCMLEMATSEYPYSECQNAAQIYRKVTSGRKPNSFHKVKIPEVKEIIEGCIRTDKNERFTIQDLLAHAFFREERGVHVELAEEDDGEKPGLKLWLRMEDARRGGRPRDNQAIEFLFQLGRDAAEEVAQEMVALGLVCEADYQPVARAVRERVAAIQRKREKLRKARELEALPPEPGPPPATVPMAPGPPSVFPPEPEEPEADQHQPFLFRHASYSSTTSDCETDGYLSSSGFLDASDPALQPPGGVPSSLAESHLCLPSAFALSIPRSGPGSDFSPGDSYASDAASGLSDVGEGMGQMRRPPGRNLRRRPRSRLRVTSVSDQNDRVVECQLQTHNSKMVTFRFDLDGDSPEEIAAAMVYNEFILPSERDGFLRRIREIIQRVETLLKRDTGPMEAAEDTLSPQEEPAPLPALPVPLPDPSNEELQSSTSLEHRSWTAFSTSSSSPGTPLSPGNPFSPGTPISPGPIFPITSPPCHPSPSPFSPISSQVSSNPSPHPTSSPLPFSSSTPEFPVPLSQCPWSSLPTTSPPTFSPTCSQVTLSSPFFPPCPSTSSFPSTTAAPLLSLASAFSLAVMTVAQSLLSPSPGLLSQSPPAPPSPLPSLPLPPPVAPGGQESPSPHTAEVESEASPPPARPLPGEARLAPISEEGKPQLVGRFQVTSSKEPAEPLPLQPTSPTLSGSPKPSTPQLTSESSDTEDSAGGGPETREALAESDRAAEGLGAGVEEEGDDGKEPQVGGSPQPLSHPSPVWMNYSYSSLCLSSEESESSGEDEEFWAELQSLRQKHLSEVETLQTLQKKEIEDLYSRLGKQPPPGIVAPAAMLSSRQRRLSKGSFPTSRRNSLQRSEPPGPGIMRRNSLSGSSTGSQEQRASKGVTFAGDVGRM
# kinases (KINOMEscan panel) (Homo sapiens, UniProt P04049), sequence (P04049 whole entry): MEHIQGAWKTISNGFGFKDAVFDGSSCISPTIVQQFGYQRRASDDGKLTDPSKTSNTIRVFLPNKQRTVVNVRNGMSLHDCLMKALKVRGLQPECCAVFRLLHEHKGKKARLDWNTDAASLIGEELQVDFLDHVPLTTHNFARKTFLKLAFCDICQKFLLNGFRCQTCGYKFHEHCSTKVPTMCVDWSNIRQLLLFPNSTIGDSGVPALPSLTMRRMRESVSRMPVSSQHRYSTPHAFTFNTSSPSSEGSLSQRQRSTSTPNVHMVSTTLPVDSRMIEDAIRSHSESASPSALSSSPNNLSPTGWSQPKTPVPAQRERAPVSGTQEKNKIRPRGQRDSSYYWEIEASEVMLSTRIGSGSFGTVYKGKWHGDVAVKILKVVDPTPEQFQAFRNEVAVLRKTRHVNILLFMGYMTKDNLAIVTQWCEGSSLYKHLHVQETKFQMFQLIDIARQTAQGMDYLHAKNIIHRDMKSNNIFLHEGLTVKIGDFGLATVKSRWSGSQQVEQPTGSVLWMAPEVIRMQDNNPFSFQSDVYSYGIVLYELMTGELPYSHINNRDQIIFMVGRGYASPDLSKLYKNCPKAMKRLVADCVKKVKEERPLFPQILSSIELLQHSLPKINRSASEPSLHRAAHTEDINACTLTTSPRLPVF
# kinases (KINOMEscan panel) (Homo sapiens, UniProt Q9H3Y6), sequence (Q9H3Y6 whole entry): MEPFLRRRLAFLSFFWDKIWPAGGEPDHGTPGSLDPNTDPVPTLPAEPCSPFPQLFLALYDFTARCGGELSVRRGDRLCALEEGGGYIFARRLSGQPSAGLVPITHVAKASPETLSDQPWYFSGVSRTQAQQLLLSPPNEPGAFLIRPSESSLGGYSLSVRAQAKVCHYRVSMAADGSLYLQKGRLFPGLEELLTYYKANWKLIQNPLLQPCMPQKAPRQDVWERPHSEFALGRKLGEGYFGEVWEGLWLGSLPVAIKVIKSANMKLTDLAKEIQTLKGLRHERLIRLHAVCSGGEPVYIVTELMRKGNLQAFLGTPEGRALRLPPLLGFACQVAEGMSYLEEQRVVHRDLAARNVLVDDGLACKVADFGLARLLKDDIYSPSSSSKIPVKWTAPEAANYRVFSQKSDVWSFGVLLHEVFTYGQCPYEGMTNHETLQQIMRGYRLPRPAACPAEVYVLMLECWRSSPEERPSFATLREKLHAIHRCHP
smiles,measurement,setting,value
Cc1cccc(-c2nc(Nc3ccncc3)c3ccccc3n2)n1 [NK215],KINOMEscan AURKA,[1],0
same,KINOMEscan RAF1,[2],39
same,KINOMEscan WEE2,[3],8
same,KINOMEscan DDR2,[4],45
same,KINOMEscan ULK2,[5],0
same,KINOMEscan WNK4,[6],0
same,KINOMEscan SRMS,[7],0
same,KINOMEscan MKNK2,[8],0
